Experiment [1] relates to MRSA clinical isolate No. 6. Nature of the experiment: MIC, broth microdilution (Example 2, Table 6). Format: cell-based, Staphylococcus aureus. (Dilution methods test growth across graded concentrations, often in twofold steps.)
Experiment [2] deals with MRSA clinical isolate No. 11. Nature of the experiment: MIC, broth microdilution (Example 2, Table 6). Format: cell-based, Staphylococcus aureus.
Experiment [3] relates to Neisseria gonorrhoeae ATCC49226. Nature of the experiment: Antibacterial spectrum MIC (Table 7). Format: cell-based. As to the method: (§1) Methicillin-susceptible Staphylococcus aureus (MSSA) NCTC8325 and methicillin-resistant Staphylococcus aureus (MRSA) ATCC43300 were used as bacteria. The bacteria of each type were cultured using Mueller-Hinton Broth (MH-broth, Difco) as a medium. Then, the minimum inhibitory concentration (MIC) of each of the EGCG derivatives was measured by a broth microdilution method in accordance with the Clinical and Laboratory Standards Institute (CLSI) guidelines (hereinafter the same).
(§2) First, each of the EGCG derivatives was dissolved in 100% dimethyl sulfoxide (DMSO, Wako Pure Chemical Industries, Ltd.) so that the concentration thereof became 5120 μg/ml. The resultant solution was diluted with DMSO or sterile distilled water so as to prepare two-fold dilution series of antibacterial agent solutions. […] Each of these antibacterial agent solutions was dispensed to wells of a 96-well plate. The concentration of the EGCG derivative in the antibacterial agent solution dispensed to the wells was set to be 10 times as high as the final concentration. On the other hand, the bacteria were cultured in the MH-broth at 37° C. overnight, and the thus-obtained pre-culture solution was diluted with a new MH-broth so that the concentration thereof in the MH-broth became 10^−4 (10^4-fold dilution), thus preparing a bacterial culture solution of about 1×10^5 CFU/ml (CFU: Colony Forming Unit, the number of viable cells). The bacterial culture solution was further added to each well, and the mixture was cultured at 37° C. for 18 hours. The ratio (volume ratio) between the antibacterial agent solution and the bacterial culture solution added to each well was set to 1:9 (the antibacterial agent solution:the bacterial culture solution), and the volume of the mixture of them per well was set to 100 μl in total. The final concentration of the EGCG derivative in the mixture was set to 8 μg/ml to 512 μg/ml, and the number of viable cells in the mixture was set to about 1×10^5 CFU/ml. Then, after the completion of the culture, the MIC was determined. Also, the turbidity (OD600 nm) was measured using a plate reader so as to identify minor differences.
(§3) Regarding the respective type strains shown in Tables 7 and 8 below, the MIC measurement was performed using the antibacterial agent solutions of Example 2 in the same manner as described in Section (2) of Example 1, except for the following. The antibacterial agent solutions were prepared by dissolving the EGCG derivatives of Example 2 in 100% DMSO and then diluting the resultant mixtures with sterile distilled water. The respective strains were derived from ATCC or NCTC. As Moraxella catarrhalis and Aspergillus fumigatus, clinical isolates thereof without an acquired resistance mechanism were used. For nutrient-rich bacteria, namely, Streptococcus pneumoniae ATCC49619, Streptococcus pyogenes ATCC19615, Streptococcus agalactiae ATCC13813, Moraxella catarrhalis, and Haemophilis influenzae ATCC49766, Strepto Haemo supplement (Eiken Chemical Co., Ltd.) was added to media for culturing them. The MIC measurement with respect to fungi was carried out by a broth microdilution method using a RPMI1640/MOPS (pH 7.0) medium in accordance with CLSI guidelines. About 2×10^3 cells/ml of fungi were inoculated to the medium. After the culture at 35° C. for 24 to 48 hours, the MIC was determined. Also, regarding the antibacterial agent solution of Comparative Example 2, the MIC was measured in the same manner.

For experiment [4], the system named is Streptococcus agalactiae ATCC13813. The experiment in a line: Antibacterial spectrum MIC (Table 7). Particulars: Strepto Haemo supplement. Format: cell-based. As to the method:
as §1, §2, §3

In experiment [5] the test system is Streptococcus pyogenes ATCC19615. Nature of the experiment: Antibacterial spectrum MIC (Table 7). Format: cell-based. Conditions: Strepto Haemo supplement. As to the method: as §1, §2, §3
Experiment [6] concerns Enterobacter aerogenes ATCC13048. Nature of the experiment: Antibacterial spectrum MIC (Table 7). Format: cell-based. As to the method:
as §1, §2, §3

Experiment [7] deals with Bacillus cereus ATCC14579. Nature of the experiment: Antibacterial spectrum MIC (Table 7). It counts as cell-based. As to the method:
as §1, §2, §3

Experiment [8] concerns Micrococcus lutus ATCC9341. Nature of the experiment: Antibacterial spectrum MIC (Table 7). Format: cell-based. As to the method:
as §1, §2, §3

In experiment [9] the test system is Stenotrophomonas maltophilia ATCC13637. The experiment in a line: Antibacterial spectrum MIC (Table 7). It counts as cell-based. As to the method: as §1, §2, §3
Experiment [10] deals with Staphylococcus epidermis ATCC14990. Nature of the experiment: Antibacterial spectrum MIC (Table 7). It counts as cell-based. Particulars: for MIC: Staphylococcus epidermis ATCC14990. As to the method: as §1, §2, §3
Experiment [11] deals with Streptococcus pneumoniae ATCC49619. Nature of the experiment: Antibacterial spectrum MIC (Table 7). It counts as cell-based. Conditions: Strepto Haemo supplement. As to the method: as §1, §2, §3
The subject of experiment [12] is Serratia marcescens ATCC13880. The experiment in a line: Antibacterial spectrum MIC (Table 7). Format: cell-based. As to the method: as §1, §2, §3
In experiment [13] the test system is Bacillus subtilus ATCC6051. Nature of the experiment: Antibacterial spectrum MIC (Table 7). Format: cell-based. As to the method: as §1, §2, §3
For experiment [14], the system named is Klebsiella oxytoca ATCC8724. Nature of the experiment: Antibacterial spectrum MIC (Table 7). Format: cell-based. As to the method: as §1, §2, §3
Another experiment deals with Moraxella catarrhalis. Nature of the experiment: Antibacterial spectrum MIC (Table 7). It counts as cell-based. Particulars: Moraxella catarrhalis clinical isolate, Strepto Haemo supplement. As to the method:
as §1, §2, §3

Experiment [15] relates to MRSA clinical isolate No. 12. The experiment in a line: MIC, broth microdilution (Example 2, Table 6). It counts as cell-based, Staphylococcus aureus.
Experiment [16] deals with S. aureus NCTC8325 (MSSA). Nature of the experiment: MIC, broth microdilution (Example 2, Table 6). It counts as cell-based, Staphylococcus aureus. As to the method:
as §1, §2
(§4) Each of the EGCG derivatives was dissolved in 100% DMSO so that the concentration thereof became 1280 μg/ml. The thus-obtained solutions were diluted with sterile distilled water, thus preparing antibacterial agent solutions.
(§5) As Comparative Example 2, the same procedures as in Example 2 were performed, except that unsubstituted EGCG was used as an antibacterial agent instead of the EGCG derivatives of Example 2. Furthermore, as a control, the same procedures as in Example 2 were performed, except that sterile distilled water was used instead of the antibacterial agent solutions containing the EGCG derivatives.

The test system of the next experiment is MRSA ATCC43300. Nature of the experiment: MIC, broth microdilution (Example 2, Table 6). It counts as cell-based, Staphylococcus aureus. As to the method: as §1, §2, §4, §5
For experiment [17], the system named is MSSA clinical isolate No. 1. Nature of the experiment: MIC, broth microdilution (Example 2, Table 6). Format: cell-based, Staphylococcus aureus.
Another experiment has as its system MSSA ATCC25923. The experiment in a line: MIC, broth microdilution (Example 2, Table 6). Format: cell-based, Staphylococcus aureus.
Experiment [18] has as its system MSSA clinical isolate No. 4. Nature of the experiment: MIC, broth microdilution (Example 2, Table 6). It counts as cell-based, Staphylococcus aureus.
Experiment [19] deals with MRSA clinical isolate No. 7. Nature of the experiment: MIC, broth microdilution (Example 2, Table 6). Format: cell-based, Staphylococcus aureus.
In experiment [20] the test system is MRSA clinical isolate No. 8. The experiment in a line: MIC, broth microdilution (Example 2, Table 6). It counts as cell-based, Staphylococcus aureus.

Here are results for five compounds from patent US9801850B2, “Antibacterial agent” (OSAKA UNIVERSITY, priority 2009, dated 2017).

Converted amounts (≈) assume the structure as drawn.

Turning to `O=C(O[C@@H]1Cc2c(O)cc(O)cc2O[C@@H]1c1cc(O)c(O)c(O)c1)c1cc(O)c(O)c(O)c1` [EGCG, Epigallocatechin gallate, reference compound], the MIC in [1] was more than 128 µg/mL; in [2], more than 128 µg/mL; in [3], 32 µg/mL (≈ 69.8 µM); in experiment [4] it was 256 µg/mL (≈ 558 µM); in experiment [5] it was 128 µg/mL (≈ 279 µM); in [6], 64 µg/mL (≈ 140 µM). The MIC in [7] came to 64 µg/mL (≈ 140 µM); in experiment [8], 128 µg/mL (≈ 279 µM); in [9] it was 64 µg/mL (≈ 140 µM); in [10], 128 µg/mL (≈ 279 µM); in experiment [11], 32 µg/mL (≈ 69.8 µM); in experiment [12], 128 µg/mL (≈ 279 µM). Further, the MIC in experiment [13] is 64 µg/mL (≈ 140 µM); in experiment [14] it was 128 µg/mL (≈ 279 µM); against Moraxella catarrhalis, 128 µg/mL (≈ 279 µM); in [15], more than 128 µg/mL; in experiment [16] it was 128 µg/mL (≈ 279 µM); against MRSA ATCC43300, more than 128 µg/mL. For the same compound, the MIC was more than 128 µg/mL in experiment [17]; more than 128 µg/mL against MSSA ATCC25923; more than 128 µg/mL in [18]; more than 128 µg/mL in [19]; 128 µg/mL (≈ 279 µM) in experiment [20].

Consider EGCG-α-linoleate [EGCG-C18TE], for which the MIC is 16 µg/mL in [1]; 64 µg/mL in experiment [2]; 16 µg/mL in experiment [3]; more than 64 µg/mL in experiment [4]; 64 µg/mL in experiment [5]; 32 µg/mL in experiment [6]. The minimal inhibitory concentration (MIC) worked out at 32 µg/mL in experiment [7]; 64 µg/mL in experiment [8]; 32 µg/mL in experiment [9]; 64 µg/mL in experiment [10]; 16 µg/mL in experiment [11]; 64 µg/mL in [12]. Also, the MIC in experiment [13] stood at 32 µg/mL; in experiment [14], 64 µg/mL; with Moraxella catarrhalis it was 32 µg/mL; in experiment [15], 16 µg/mL; in experiment [16], 4 µg/mL; with MRSA ATCC43300, 16 µg/mL. The MIC was found to be 16 µg/mL in [17]; 32 µg/mL against MSSA ATCC25923; 16 µg/mL in [18]; 16 µg/mL in experiment [19]; 8 µg/mL in experiment [20].

Consider EGCG-dioctanoate [EGCG-C8×2], for which the MIC in experiment [1] was determined as 16 µg/mL; in [2] it was 32 µg/mL; in experiment [3], 16 µg/mL; in experiment [4] it was 64 µg/mL; in [5], 32 µg/mL; in experiment [6], 16 µg/mL. The MIC in [7] came to 16 µg/mL; in experiment [8], 64 µg/mL; in experiment [9], 32 µg/mL; in experiment [10], 64 µg/mL; in experiment [11] it was 16 µg/mL; in experiment [12], 64 µg/mL. Further, the MIC is 32 µg/mL in experiment [13]; 64 µg/mL in experiment [14]; 32 µg/mL in the experiment with Moraxella catarrhalis; 16 µg/mL in [15]; 4 µg/mL in experiment [16]; 16 µg/mL against MRSA ATCC43300. The MIC in experiment [17] was 16 µg/mL; with MSSA ATCC25923, 16 µg/mL; in experiment [18], 16 µg/mL; in experiment [19] it was 16 µg/mL; in experiment [20], 4 µg/mL.

Take EGCG-oleate [EGCG-C18E]: the MIC in experiment [1] is 32 µg/mL; in [2], 64 µg/mL; in experiment [3], 16 µg/mL; in experiment [4], more than 64 µg/mL; in experiment [5], 64 µg/mL; in experiment [6] it was 32 µg/mL. Besides, the MIC in experiment [7] came to 32 µg/mL; in experiment [8], 64 µg/mL; in [9], 32 µg/mL; in experiment [10], 64 µg/mL; in [11] it was 16 µg/mL; in experiment [12], 64 µg/mL. The MIC in experiment [13] stood at 32 µg/mL; in [14], 64 µg/mL; with Moraxella catarrhalis, 32 µg/mL; in experiment [15] it was 32 µg/mL; in experiment [16] it was 16 µg/mL; with MRSA ATCC43300, 32 µg/mL. Also, the MIC turned out to be 32 µg/mL in [17]; 32 µg/mL against MSSA ATCC25923; 32 µg/mL in experiment [18]; 16 µg/mL in experiment [19]; 8 µg/mL in experiment [20].

EGCG-stearate [EGCG-C18]: the MIC in experiment [1] came to 32 µg/mL; in experiment [2], 64 µg/mL; in experiment [3], 16 µg/mL; in experiment [4], 64 µg/mL; in experiment [5] it was 64 µg/mL; in experiment [6], 32 µg/mL. The minimum inhibitory concentration (MIC) worked out at 32 µg/mL in experiment [7]; 64 µg/mL in [8]; 32 µg/mL in experiment [9]; 32 µg/mL in experiment [10]; 64 µg/mL in experiment [12]; 32 µg/mL in experiment [13]. Also, the MIC in experiment [14] came to 64 µg/mL; against Moraxella catarrhalis, 64 µg/mL; in experiment [15] it was 64 µg/mL; in experiment [16] it was 16 µg/mL; in the experiment on MRSA ATCC43300, 32 µg/mL; in experiment [17] it was 32 µg/mL. Also, the MIC is 32 µg/mL with MSSA ATCC25923, 32 µg/mL in [18], 32 µg/mL in experiment [19] and 16 µg/mL in [20]. In addition, in experiment [10] (Staphylococcus epidermids ATCC14990, comparison among EGCG derivatives), the antibacterial effect result is “strongest antibacterial effect”.

The term MIC denotes the least concentration at which growth counts as inhibited. Low readings indicate inhibition by little substance, high ones a need for much substance.
